Data on 54 compounds can be found in patent publication US8623862B2, “Derivatives of N-[(1H-pyrazol-1-yl)aryl]-1H-indole or 1H-indazole-3-carboxamide, preparation thereof and applications thereof in therapeutics” (Sanofi, priority 2011, dated 2014).

Where a name gives a salt, the structure may show the parent alone.

The first experiment relates to platelet aggregation. Put plainly: Inhibition of platelet aggregation in vitro (rat blood).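 For Inhibition of platelet aggregation in vitro (rat blood) in μM: aggregation induced by ADP added as 4 µL of a 250 µM solution.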 The format is cell-based. Conditions: 0.1 h; rat platelet-rich plasma, ADP-induced aggregation, area under the curve of absorbance for 6 minutes; read-out: Inhibition of platelet aggregation in vitro (rat blood). How it is done:
The measurements of platelet aggregation are performed at 37° C. in glass tubes (Chrono-Log—Kordia aggregometer).
Inhibition of Platelet Aggregation In Vitro (Rat Blood)
The blood is taken from male rats of the Sprague-Dawley strain, weighing 250-300 g.
The platelet-rich plasma (PRP) is obtained by centrifugation of the blood at 300 g for 5 minutes, and the measurements of platelet aggregation are performed as described above.
The results are calculated using the area under the curve of absorbance measured for 6 minutes, and expressed as percentage inhibition.
Turning to `CCCC(=O)c1cnn(-c2ccc(NC(=O)c3cn(CC(=O)O)c4ccc(Cl)cc34)cc2)c1C` [Compound 3, (3-{[4-(4-butyryl-5-methyl-1H-pyrazol-1-yl)phenyl]carbamoyl}-5-chloro-1H-indol-1-yl)acetic acid], the IC50 was determined as 2.8 µM. As for `CCCC(=O)c1cnn(-c2ccc(NC(=O)c3cn(CC(=O)O)c4cc(C)c(Cl)cc34)cc2)c1C` [Compound 4, Sodium (3-{[4-(4-butyryl-5-methyl-1H-pyrazol-1-yl)phenyl]carbamoyl}-5-chloro-6-methyl-1H-indol-1-yl)acetate], the IC50 worked out at 3.3 µM.

Staying with this experiment, now noted: Rattus norvegicus, Platelet, 0.1 h, read-out: Inhibition of platelet aggregation in vitro (rat blood) in μM.
For the compound `CCCC(=O)c1cnn(-c2cnc(NC(=O)c3cn(CC(=O)N4CCN(C)CC4)c4ccc(Cl)cc34)cn2)c1C` [Compound 27, N-[5-(4-Butyryl-5-methyl-1H-pyrazol-1-yl)pyrazin-2-yl]-5-chloro-1-[2-(4-methylpiperazin-1-yl)-2-oxoethyl]-1H-indole-3-carboxamide hydrochloride], the IC50 is 0.3 µM. On to `CCCC(=O)c1cnn(-c2ccc(NC(=O)c3cn(CC(=O)N4CCN(CCOC(F)(F)F)CC4)c4ccc(Cl)cc34)nn2)c1C` [Compound 30, N-[6-(4-Butyryl-5-methyl-1H-pyrazol-1-yl)pyridazin-3-yl]-5-chloro-1-(2-oxo-2-{4-[2-(trifluoromethoxy)ethyl]piperazin-1-yl}ethyl)-1H-indole-3-carboxamide hydrochloride], for which the IC50 was found to be 0.1 µM.

The same experiment, now with this note: rat platelet-rich plasma, ADP-induced aggregation, area under the curve of absorbance for 6 minutes; read-out: Inhibition of platelet aggregation in vitro (rat blood).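 For Inhibition of platelet aggregation in vitro (rat blood) in μM: aggregation induced by ADP added as 4 µL of a 250 µM solution.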
As for `CCCC(=O)c1cnn(-c2ccc(NC(=O)c3cn(CC(=O)N4CCC(O)C4)c4ccc(Cl)cc34)nn2)c1C` (racemic) [Compound 49], the IC50 worked out at 0.22 µM.

As to `CCCC(=O)c1cnn(-c2ccc(NC(=O)c3cn(CC(=O)N4CCN(CC5CCCO5)CC4)c4ccc(Cl)cc34)nn2)c1C` (racemic) [Compound 63], the IC50 was 0.12 µM.

For `CCCC(=O)c1cnn(-c2ccc(NC(=O)c3cn(CC(=O)N4CCN5CCCCC5C4)c4ccc(Cl)cc34)nn2)c1C` (racemic) [Compound 67], the IC50 came to 0.09 µM. Same read-out and setting: then `CCCC(=O)c1cnn(-c2ccc(NC(=O)c3cn(CC(=O)O)c4cc(C)ccc34)cc2)c1C` [Compound 8], with 63 µM; and `CCCC(=O)c1cnn(-c2ccc(NC(=O)c3cn(CC(=O)O)c4ccc(OC)cc34)cc2)c1C` [Compound 12], with 17 µM. Still for that read-out and setting: then `CCCC(=O)c1cnn(-c2ccc(NC(=O)c3cn(CC(=O)O)c4ccc(C(F)(F)F)cc34)cc2)c1C` [Compound 13], with 4.6 µM; and `CCCC(=O)c1cnn(-c2ccc(NC(=O)c3cn(CC(=O)O)c4ccc(Br)cc34)cc2)c1C` [Compound 14], with 1.9 µM.

`CCCC(=O)c1cnn(-c2ccc(NC(=O)c3cn(CC(=O)O)c4ccc(-c5ccccc5)cc34)cc2)c1C` [Compound 15]: the IC50 is 25 µM. Same read-out and setting: to `CCCC(=O)c1cnn(-c2ccc(NC(=O)c3cn(CC(=O)O)c4cc(C)c(C)cc34)cc2)c1C` [Compound 16] belongs 4.6 µM. On the same count and under the same terms, then `CCCC(=O)c1cnn(-c2ccc(NC(=O)c3cn(CC(=O)O)c4cc(Cl)c(Cl)cc34)cc2)c1C` [Compound 17], with 7.3 µM; and `CCCC(=O)c1cnn(-c2ccc(NC(=O)c3cn(CC(=O)O)c4ccc(F)cc34)cc2)c1C` [Compound 18], with 36 µM; and `CCCC(=O)c1cnn(-c2ccc(NC(=O)c3cn(CC(=O)O)c4cc(Br)c(C)cc34)cc2)c1C` [Compound 19], with 42 µM.

On to `CCCC(=O)c1cnn(-c2ccc(NC(=O)c3cn(CC(=O)O)c4cc(C)c(Br)cc34)cc2)c1C` [Compound 20], for which the IC50 was determined as 3.9 µM.

Take `CCCC(=O)c1cnn(-c2ccc(NC(=O)c3cn(CC(=O)O)c4cc(F)c(Cl)cc34)cc2)c1C` [Compound 21]: the IC50 turned out to be 2.8 µM.

As to `CCCC(=O)c1cnn(-c2ccc(NC(=O)c3cn(CC(=O)O)c4ccc(N(C)C)cc34)cc2)c1C` [Compound 22], the IC50 is 1.2 µM. Still for that read-out and setting: to `CCCC(=O)c1cnn(-c2ccc(NC(=O)c3cn(CC(=O)O)c4ccc(C#N)cc34)cc2)c1C` [Compound 23] belongs 4.1 µM; to `CCCC(=O)c1cnn(-c2ccc(NC(=O)c3nn(CC(=O)O)c4ccc(C)cc34)cc2)c1C` [Compound 24], 37 µM. As for `CCCC(=O)c1cnn(-c2ccc(NC(=O)c3cn(CC(=O)NC)c4ccc(Cl)cc34)nn2)c1C` [Compound 32], the IC50 was found to be 0.19 µM. Still for that read-out and setting: to `CCCC(=O)c1cnn(-c2ccc(NC(=O)c3cn(CC(=O)NCCO)c4ccc(Cl)cc34)nn2)c1C` [Compound 33] belongs 0.08 µM.

Regarding `CCCC(=O)c1cnn(-c2ccc(NC(=O)c3cn(CC(=O)N4CCN(CC(=O)OCC)CC4)c4ccc(Cl)cc34)nn2)c1C` [Compound 34], the IC50 is 0.09 µM. The same measure, in the same setting: to `CCCC(=O)c1cnn(-c2ccc(NC(=O)c3cn(CC(=O)N4CCOCC4)c4ccc(Cl)cc34)nn2)c1C` [Compound 35] belongs 0.19 µM.

With `CCCC(=O)c1cnn(-c2ccc(NC(=O)c3cn(CC(=O)N(C)C)c4ccc(Cl)cc34)nn2)c1C` [Compound 36], the IC50 amounted to 0.11 µM. Still for that read-out and setting: then `CCCC(=O)c1cnn(-c2ccc(NC(=O)c3cn(CC(=O)N(C)CCO)c4ccc(Cl)cc34)nn2)c1C` [Compound 38], with 0.07 µM; and `CCCC(=O)c1cnn(-c2ccc(NC(=O)c3cn(CC(=O)N4CCN(CC(=O)NC(C)C)CC4)c4ccc(Cl)cc34)nn2)c1C` [Compound 39], with 0.04 µM; and `CCCC(=O)c1cnn(-c2ccc(NC(=O)c3cn(CC(=O)N4CCCC4)c4ccc(Cl)cc34)nn2)c1C` [Compound 40], with 0.1 µM. On the same count and under the same terms, to `CCCC(=O)c1cnn(-c2ccc(NC(=O)c3cn(CC(=O)N4CCN(C(C)=O)CC4)c4ccc(Cl)cc34)nn2)c1C` [Compound 42] belongs 0.15 µM. On the same count and under the same terms, then `CCCC(=O)c1cnn(-c2ccc(NC(=O)c3cn(CC(=O)N4CC(C)NC(C)C4)c4ccc(Cl)cc34)nn2)c1C` (stereo not drawn) [Compound 43], with 0.12 µM. On to `CCCC(=O)c1cnn(-c2ccc(NC(=O)c3cn(CC(=O)N4CCN(C)C(=O)C4)c4ccc(Cl)cc34)nn2)c1C` [Compound 44], for which the IC50 amounted to 0.16 µM. Same read-out and setting: to `CCCC(=O)c1cnn(-c2ccc(NC(=O)c3cn(CC(=O)N4CCN(c5ccc(F)cc5)CC4)c4ccc(Cl)cc34)nn2)c1C` [Compound 45] belongs 0.42 µM; to `CCCC(=O)c1cnn(-c2ccc(NC(=O)c3cn(CC(=O)N4CCN(CC(=O)N5CCCC5)CC4)c4ccc(Cl)cc34)nn2)c1C` [Compound 46], 0.04 µM; to `CCCC(=O)c1cnn(-c2ccc(NC(=O)c3cn(CC(=O)N4CCN(CC)CC4)c4ccc(Cl)cc34)nn2)c1C` [Compound 47], 0.06 µM. `CCCC(=O)c1cnn(-c2ccc(NC(=O)c3cn(CC(=O)N4CCN(CCC)CC4)c4ccc(Cl)cc34)nn2)c1C` [Compound 48]: the IC50 was 0.14 µM. For the compound `CCCC(=O)c1cnn(-c2ccc(NC(=O)c3cn(CC(=O)N4CCC(CCO)CC4)c4ccc(Cl)cc34)nn2)c1C` [Compound 50], the IC50 is 0.05 µM. Same read-out and setting: then `CCCC(=O)c1cnn(-c2ccc(NC(=O)c3cn(CC(=O)N4CCN(C(C)C)CC4)c4ccc(Cl)cc34)nn2)c1C` [Compound 54], with 0.11 µM; and `CCCCN1CCN(C(=O)Cn2cc(C(=O)Nc3ccc(-n4ncc(C(=O)CCC)c4C)nn3)c3cc(Cl)ccc32)CC1` [Compound 55], with 0.16 µM; and `CCCC(=O)c1cnn(-c2ccc(NC(=O)c3cn(CC(=O)N4CCC(CO)CC4)c4ccc(Cl)cc34)nn2)c1C` [Compound 56], with 0.3 µM. `CCCC(=O)c1cnn(-c2ccc(NC(=O)c3cn(CC(=O)NCCn4cccc4)c4ccc(Cl)cc34)nn2)c1C` [Compound 58]: the IC50 turned out to be 0.45 µM. Same read-out and setting: to `CCCC(=O)c1cnn(-c2ccc(NC(=O)c3cn(CC(=O)N(C)CCOC)c4ccc(Cl)cc34)nn2)c1C` [Compound 61] belongs 0.09 µM; to `CCCC(=O)c1cnn(-c2ccc(NC(=O)c3cn(CC(=O)N(C)Cc4ccco4)c4ccc(Cl)cc34)nn2)c1C` [Compound 62], 0.15 µM. The same measure, in the same setting: then `CCCC(=O)c1cnn(-c2ccc(NC(=O)c3cn(CC(=O)N4CCNC(=O)C4)c4ccc(Cl)cc34)nn2)c1C` [Compound 64], with 0.06 µM; and `CCCC(=O)c1cnn(-c2ccc(NC(=O)c3cn(CC(=O)N4CCC(N5CCOCC5)CC4)c4ccc(Cl)cc34)nn2)c1C` [Compound 65], with 0.12 µM; and `CCCC(=O)c1cnn(-c2ccc(NC(=O)c3cn(CC(=O)N4CC(O)C4)c4ccc(Cl)cc34)nn2)c1C` [Compound 66], with 0.22 µM.

Turning to `CCCC(=O)c1cnn(-c2ccc(NC(=O)c3cn(CC(=O)N4CCC(O)CC4)c4ccc(Cl)cc34)nn2)c1C` [Compound 68], the IC50 worked out at 0.07 µM. With `CCCC(=O)c1cnn(-c2ccc(NC(=O)c3cn(CC(=O)N4CCN(C(=O)N(C)C)CC4)c4ccc(Cl)cc34)nn2)c1C` [Compound 69], the IC50 is 0.1 µM. Same read-out and setting: to `CCCC(=O)c1cnn(-c2ccc(NC(=O)c3cn(CC(=O)N4CCn5cnnc5C4)c4ccc(Cl)cc34)nn2)c1C` [Compound 70] belongs 0.11 µM.

For the compound `CCCC(=O)c1cnn(-c2ccc(NC(=O)c3cn(CC(=O)N4CCS(=O)(=O)CC4)c4ccc(Cl)cc34)nn2)c1C` [Compound 71], the IC50 came to 0.12 µM. Turning to `CCCC(=O)c1cnn(-c2ccc(NC(=O)c3cn(CC(=O)N(C)CCCO)c4ccc(Cl)cc34)nn2)c1C` [Compound 72], the IC50 is 0.06 µM.

As to `CCCC(=O)c1cnn(-c2ccc(NC(=O)c3cn(CC(=O)N4CCN(C5CCS(=O)(=O)C5)CC4)c4ccc(Cl)cc34)nn2)c1C` (stereo not drawn) [Compound 73], the IC50 is 0.05 µM.

With `CCCC(=O)c1cnn(-c2ccc(NC(=O)c3cn(CC(=O)NCc4n[nH]c(C)n4)c4ccc(Cl)cc34)nn2)c1C` [Compound 74], the IC50 was determined as 0.12 µM. With `CCCC(=O)c1cnn(-c2ccc(NC(=O)c3cn(CC(=O)N4CCC(C(F)(F)F)C4)c4ccc(Cl)cc34)nn2)c1C` (stereo not drawn) [Compound 75], the IC50 was 0.27 µM.
